Holding throughout (type): cell-based
Data set [1] deals with Chlamydia trachomatis serovar L2. Kind of data set: Minimum bactericidal concentration (titration of infectious ability of bacteria from treated infected cells). The method, then:
(§1) It was first sought to verify whether other molecules of the β-lactam family could induce in vitro the same abnormal and noninfectious forms of Chlamydia trachomatis as that produced in the presence of penicillin G. Titration experiments were performed on the infectious ability of bacteria from infected cells treated with different β-lactams. Cytotoxicity and minimum bactericidal concentration (MBC) were determined for each of these molecules. It was also verified whether all of these β-lactams have bactericidal action on persistent forms of Chlamydia trachomatis produced in vitro under the effect of IFN-γ.

In data set [2] the test system is Cells Infected with Chlamydia trachomatis serovar L2. Put plainly: Cytotoxicity of β-lactams. The method, then:
as §1

In data set [3] the test system is Chlamydia trachomatis L2 serovar 16S rRNA. Kind of data set: 16S rRNA expression by RT-PCR. To be noted: 100 hpi. From the text:
HeLa cells were infected with the Chlamydia trachomatis L2 serovar and treated or not treated with penicillin G at 3 hpi. At 100 hpi, the cells were collected and the RNA extracted carefully to avoid DNA contamination. Half of the isolated RNA was used for reverse transcription. The RNA and cDNA were amplified by PCR with primers for 16S (bacterial) and 18S (eukaryotic) rRNA in order to study bacterial activity and to verify cDNA quality and quantity. PCR of the RNA is used to verify the absence of DNA contamination. It also indicates the absence of contaminant in the PCR. […] Roughly 1×10^5 HeLa cells were infected and exposed or not exposed to penicillin G, as described above. At 100 hpi, total RNA were isolated using the RNeasy Plus Mini Kit (Qiagen, Hilden, Germany). The samples were treated with DNase I for 1 hour at 37° C. The enzyme was then denatured at 70° C. for 10 min. The RNA were reverse-transcribed into cDNA using random hexamer primers and AffinityScript Multiple Temperature Reverse Transcriptase (Agilent, Santa Clara, Calif., USA) and by following the manufacturer's instructions for RT-PCR. cDNA and RNA were amplified by PCR with Tag Polymerase (Invitrogen, Carlsbad, Calif., USA) in order to verify the absence of DNA contamination. The primers used to amplify 16S rRNA are: A semi-quantitative analysis of the PCR products was carried out by agarose gel electrophoresis and UV detection.

Data set [4] deals with Chlamydia trachomatis inclusions. Kind of data set: Fusion of lysosomes with inclusions (cathepsin D, LysoTracker, confocal microscopy). As to conditions: HeLa, 24 hpi.
Data set [5] deals with Chlamydia trachomatis serovar L2. Kind of data set: Development and morphology of inclusions in infected HeLa cells (microscopy). To be noted: infected HeLa cells, videomicroscopy / culture for 4 days. The procedure: HeLa cells were infected with Chlamydia trachomatis serovar L2 and treated with IFN-γ (100 ng/ml), penicillin G (100 U/ml) or gentamicin ([…]). At various times after infection (hours post-infection (hpi)), the cells were fixed and stained with an antibody against Chlamydia sp. (green in the original figure) and with Hoechst (blue in the original figure). The infected HeLa cells treated with penicillin G have abnormal bodies that grow and that are phenotypically quite different from those formed during treatment with IFN-γ. The bodies formed with penicillin G are appreciably different from “classic” persistent bodies. To examine the effects of penicillin G on cell infection with Chlamydia, the host cells were cultivated up to 70% confluence without antibiotics, and then were infected with C. trachomatis strain […]. muridarum at 1 IFU. The infections were carried out at 37° C. for 90 minutes with centrifugation, followed by a washing of extracellular bacteria. At 3 hpi, after the washings, the culture medium was replaced with medium containing either 25 μg/ml gentamicin or 1-100 IU/ml penicillin G. At regular intervals after treatment with penicillin G, the cultures were either fixed in 4% neutral buffered PFA for 30 minutes to be prepared for confocal microscopy, or collected to determine the infectivity of the progeny bacteria, according to the previously described method (Verbeke, P. et al. PLoS Pathog 2:e45, 2006). HeLa cells cultured in monolayers on slides were infected with serovar L2 with an IFU of 1, as described above (Verbeke, P. et al. PLoS Pathog 2:e45, 2006). Three hours after the infection, the medium was removed and replaced with culture medium containing 500 IU/ml (final concentration) recombinant human IFN-γ.

[6] abbreviates: minimum bactericidal concentration, read-out: MBC.
Setting [7] is: second line of the MBC cell, read-out: MBC, bound in parentheses below the value.
The mark [8] stands for this setting: printed as a concentration bound.

≈ marks a conversion by molar mass, not a printed value. Structures can show the parent of a compound that is named as a salt. Where two headings read alike, the source gives them in different places.

With `CC1(C)S[C@@H]2[C@H](NC(=O)[C@H](N)c3ccc(O)cc3)C(=O)N2[C@H]1C(=O)O` [Amoxicillin trihydrate], the MBC is 0.3 µM in data set [1] (setting [6]) and greater than 0.1 µM in data set [1] (setting [7]). This molecule had a Cytotox. in data set [2] (given as 0) of 0.
On to `CC1=C(C(=O)O)N2C(=O)[C@@H](NC(=O)[C@H](N)c3ccc(O)cc3)[C@H]2SC1` [Cefadroxil], for which the minimum bactericidal concentration (MBC) was 10 µM (≈ 3.63 µg/mL) in data set [1] (setting [6]) and greater than 3 µM in data set [1] (setting [7]). In data set [2] (given as 0), this molecule came in with a Cytotox. of 0.
In the case of `C=CC1=C(C(=O)O)N2C(=O)[C@@H](NC(=O)/C(=N\OCC(=O)O)c3csc(N)n3)[C@H]2SC1` [Cefixime trihydrate], the MBC is 300 µM in data set [1] (setting [6]) and greater than 100 µM in data set [1] (setting [7]). The molecule also yielded a Cytotox. in data set [2] (setting [8]) greater than 400 µM.
`Cc1onc(-c2ccccc2Cl)c1C(=O)N[C@@H]1C(=O)N2[C@@H]1SC(C)(C)[C@@H]2C(=O)O` [Cloxacillin sodium salt hydrate]: the minimal bactericidal concentration (MBC) in data set [1] (setting [6]) was 3 µM; in data set [1] (setting [7]), greater than 1 µM. Moreover, the Cytotox. in data set [2] (given as 0) came to 0.
Take `C[C@@H](O)[C@H]1C(=O)N2C(C(=O)O)=C(SCCN=CN)C[C@H]12` [Imipenem monohydrate]: the MBC was 300 µM in data set [1] (setting [6]) and greater than 100 µM in data set [1] (setting [7]). Further, the Cytotox. in data set [2] (given as 0) is 0.
In the case of `CC1(C)S[C@@H]2[C@H](/N=C/N3CCCCCC3)C(=O)N2[C@H]1C(=O)O` [Mecillinam], the MBC in data set [1] (setting [6]) is 3 µM (≈ 0.976 µg/mL); in data set [1] (setting [7]) it was greater than 1 µM. In data set [2] (given as 0), the Cytotox. was 0.
With `CC1(C)S[C@@H]2[C@H](NC(=O)COc3ccccc3)C(=O)N2[C@H]1C(=O)O` [Penicillin V potassium salt], the values for the MBC in data set [1] (setting [6]) and in data set [1] (setting [7]) were 0.3 µM and greater than 0.1 µM, respectively. Moreover, in data set [2] (given as 0), the Cytotox. is recorded as 0.
Turning to `O=C(O)[C@H]1/C(=C/CO)O[C@@H]2CC(=O)N21` [Potassium clavulanate], the results for the MBC in data set [1] (setting [6]) and in data set [1] (setting [7]) were 1 µM and greater than 0.3 µM, respectively. The same molecule came in with a Cytotox. in data set [2] (setting [8]) greater than 50 µM.
Consider `CC1(C)[C@H](C(=O)O)N2C(=O)C[C@H]2S1(=O)=O` [Sulbactam sodium], for which the MBC is 10 µM in data set [1] and greater than 3 µM in data set [1] (read-out: MBC, bound in parentheses below the value).
Consider `C[C@]1(Cn2ccnn2)[C@H](C(=O)O)N2C(=O)C[C@H]2S1(=O)=O` [Tazobactam sodium salt], for which the MBC in data set [1] (setting [6]) is 30 µM; in data set [1] (setting [7]), greater than 10 µM. The Cytotox. in data set [2] (given as 0) turned out to be 0.
With gentamicin, the “16S rRNA expression in infected cells” value in data set [3] is given as “amplified”.

B1: IFN-γ: Recombinant human IFN-γ, a well-known inducer of persistence (protein, UniProt P01579 24-161, looked up)
Interferon gamma: QDPYVKEAENLKKYFNAGHSDVADNGTLFLGILKNWKEESDRKIMQSQIVSFYFKLFKNFKDDQSIQKSVETIKEDMNVKFFNSNKKKRDDFEKLTNYSVTDLNVQRKAIHELIQVMAELSPAAKTGKRKRSQMLFRG
As for B1, the “localization of cathepsin D in inclusions” value in data set [4] was “excluded from normal and persistent inclusions”. Besides, the “growth of the bacterial inclusions” value in data set [5] is reported as “remains constant”. In addition, the “16S rRNA expression in infected cells” value in data set [3] is given as “amplified”.

For orientation: MBC means the lowest tested concentration that kills the bacteria rather than only halting them.
